From patent US20240058318A1, “DEGRADING PKCB1 TO TREAT CANCER” (Mayo Foundation for Medical Education and Research, priority 2020, published 2024)

How the values were obtained:
Assay type in all cases: cell-based
[1] = test system: Rb-proficient (MDAMB231) and Rb-deficient (BT549 and MDAMB436) TNBC cells; assay: CV proliferation assay, TNBC cells (statements across lines); settings: MDAMB231 and BT549 cells (FIG. 4A and TABLE 1)
Description: (§1) Cell proliferation rates were determined using crystal violet assays. One thousand cells per well were plated in 96 well tissue culture plates and treated the following day with a bifunctional compound or control for 7 days in replicates of 8. Cells were fixed with 25% glutaraldehyde for 10 minutes with shaking, washed 5 times with distilled water, stained with a 1% crystal violet solution (solubilized in 25% methanol) for 10 minutes, washed again 5 times and allowed to dry. De-staining was performed using […] sodium citrate in 50% ethanol followed by quantification using a 96 well spectrophotometer set at an absorbance of 550 nm.
as §1, with “using CV” for “using crystal violet”, “assays. Two” for “assays. One”, “thousand (2000) or 4000” for “thousand”, “for 6” for “for 7”, “of 6.” for “of 8.”

BT549 cells = assay: Crystal violet (CV) proliferation assay, BT549; settings: BT549 (PKCß1 high, Rb negative), 2000 cells
Description: as §1, with “One thousand cells per well were plated in 96 well tissue culture plates and treated the following day with a bifunctional compound or control for 7 days in replicates of 8.” left out

MDAMB231 cells = assay: Crystal violet (CV) proliferation assay, MDAMB231; settings: MDAMB231 (PKCß1 high, Rb positive), 2000 cells
Description: as §1, with “One thousand cells per well were plated in 96 well tissue culture plates and treated the following day with a bifunctional compound or control for 7 days in replicates of 8.” left out

[2] = test system: ER-stress induced UPR pathway; assay: Western blot of UPR pathway proteins in MDA-MB-231 cells; settings: 1 μM
Description: (§2) Triple negative breast cancer MDA-MB-231 cells were cultured in phenol-red free DMEM/F12 medium supplemented with 10% FBS and 1% AA. Cells were plated at 1×10^6 cells per 10 cm dish. The next day, the cells were treated with DMSO, 1 μM Pr-7 or 1 μM ENDX for 1, 8, 24, and 48 hours, and were then processed for RNA and RIPA protein analysis.
For western blotting, 30 μg of protein lysates were run on Criterion precast 10% Bis-Tris gel, transferred to PVDF membrane, incubated in TBST-5% milk for one hour followed by overnight incubation with phospho-IRE1α (Sigma SAB5700519, rabbit, 1:1000), IRE1α (CS3294, rabbit, 1:1000), phospho-eIF2α (CS3398, rabbit, 1:1000), eIF2α (CS5324, rabbit, 1:1000), CHOP (CS2895, mouse, 1:1000), PUMA (SC374223, mouse, 1:200), NOXA (CS14766, rabbit, 1:1000), E2F1 (SC251, mouse, 1:250), BCL2 (SC7382, 1:200), cleaved PARP (CS5625, rabbit, 1:1000), PARP (CS9542, rabbit, 1:1000), PKCβ1 (SC8049, mouse, 1:200), PKCδ (CS2058, rabbit, 1:1000) and Actin (Sigma A2228, mouse, 1:10,000) primary antibodies in TBST-5% BSA solution. Membranes were washed in TBS-T, incubated for one-hour in HRP-linked anti-rabbit or anti-mouse secondary antibodies in TBST-5% milk, and washed with TBS-T. Bands were developed using west-pico or west-femto chemiluminescent substrate reagents.

PKCβ1 = biological target: T1, PKCβ1 (Homo sapiens, UniProt P05771); assay: Western blot, PKCβ1 expression in MCF7AC1 cells; settings: 1 μM, within 72 hours, drugs replenished every 24 hours
T1 construct: western blots showing expression of PKCβ1 in MCF7AC1 cells treated with 1 μM concentration of the ENDX-PROTACs or ENDX; endogenous in cells; host or cells: MCF7AC1 (ER+ breast cancer cells)
T1 sequence (P05771 whole entry): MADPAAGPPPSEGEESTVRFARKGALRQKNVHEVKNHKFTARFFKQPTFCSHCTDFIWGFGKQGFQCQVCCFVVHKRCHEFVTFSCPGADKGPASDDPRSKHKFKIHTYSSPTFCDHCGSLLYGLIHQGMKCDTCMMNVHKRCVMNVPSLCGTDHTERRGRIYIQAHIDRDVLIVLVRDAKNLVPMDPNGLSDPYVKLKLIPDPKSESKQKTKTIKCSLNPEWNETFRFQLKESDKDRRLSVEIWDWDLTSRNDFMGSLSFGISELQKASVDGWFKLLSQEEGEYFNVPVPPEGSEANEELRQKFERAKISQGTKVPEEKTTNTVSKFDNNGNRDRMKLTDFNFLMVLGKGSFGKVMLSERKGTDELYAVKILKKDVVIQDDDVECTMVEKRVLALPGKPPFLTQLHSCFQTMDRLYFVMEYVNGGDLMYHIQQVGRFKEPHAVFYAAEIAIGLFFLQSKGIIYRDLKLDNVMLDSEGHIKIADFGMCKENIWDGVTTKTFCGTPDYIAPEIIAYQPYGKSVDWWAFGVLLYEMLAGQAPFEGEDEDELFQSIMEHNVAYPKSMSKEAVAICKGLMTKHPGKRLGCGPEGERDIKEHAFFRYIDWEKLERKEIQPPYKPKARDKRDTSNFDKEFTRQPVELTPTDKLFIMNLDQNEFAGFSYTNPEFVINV
Description: For western blotting analysis, cells were treated with vehicle (DMSO) or 1 μM of the indicated ENDX-PROTAC's or parent drug ENDX for 24, 48 and 72 hours with the drugs replenished every 24 hours. 25 μg of protein lysates were run on 10% Bis-Tris XT Criterion precast SDS-PAGE gels and transferred on to PVDF membrane. Following blocking with TB ST-5% milk, the membranes were probed with primary antibodies (1:500 — 1:2000 dilutions) for PKCβ1 (Abcam #136917), ERα (SC #8002), E2F1 (SC #251) and Actin (CS#8457) in TBST-5% BSA and secondary antibodies (1:2000 dilution) in TBST-5% milk. Membranes were developed using chemiluminescent WestPico or WestFemto detection solutions on the Li-Cor Imaging system.

MDAMB436 cells = assay: Crystal violet (CV) proliferation assay, MDAMB436; settings: MDAMB436 (PKCß1 low, Rb negative), 2000 cells
Description: as §1, with “One thousand cells per well were plated in 96 well tissue culture plates and treated the following day with a bifunctional compound or control for 7 days in replicates of 8.” left out

[3] = test system: unfolded protein response (UPR) mRNAs; assay: qRT-PCR of UPR-associated mRNAs in MDAMB231 cells; settings: 1 μM, 0-48 hours, fold relative to DMSO
Description: To evaluate the effect of PROTAC 7 (Pr-7) on expression of various proapoptotic polypeptides, triple negative MDAMB231 cells were treated with DMSO, 1 μM Pr-7, or 1 μM ENDX, and mRNA levels were assessed by qRT-PCR at 0-, 1-, 8-, 24-, and 48-hour time points.
as §2
In particular, total RNA from tissue samples and cell lines was extracted using the RNEASY® Plus mini kit (Qiagen; Hilden, Germany), cDNA was generated using a ISCRIPT™ cDNA synthesis kit (Bio-Rad; Hercules, CA) and qRT-PCR reactions were set up using PERFECTA® SYBR™ green fast mix reagents (Quanta BioSciences; Beverly, MA) and gene-specific primer sets (IDT; Coralville, IA). The forward and reverse primer sequences for the genes used in this analysis were obtained from the Harvard PrimerBank database. Amplification of HPRT and tubulin was used as an internal control. Relative expression between samples was calculated by the comparative Ct method.

IC50 (BT549 cells): 0.043 µM
IC50 (MDAMB231 cells): 0.087 µM
PKCβ1 polypeptide degradation (PKCβ1): rapidly degraded PKCβ1 polypeptides
IC50 (MDAMB436 cells): 0.04 µM
Structure (SMILES): CC/C(=C(\c1ccc(O)cc1)c1ccc(OCCN(C)C(=O)COCCNC(=O)Cc2ccc3c(c2)CN(C2CCC(=O)NC2=O)C3=O)cc1)c1ccccc1 (centres unmarked) [TC-Pr-007]
induction of apoptosis [1]: induced apoptosis
E2F1 expression [2]: downregulation
E2F7 activation [2]: activated E2F7
PARP cleavage [2]: increased PARP cleavage
expression of anti-apoptotic protein BCL2 [2]: downregulated
activation of ER-stress induced UPR pathway ([2]; 1-48 hours): robustly activated multiple components
mRNA expression of UPR-associated genes [3]: increased mRNA expression for CHOP, MCL-1, PUMA, NOXA, and Xbp-1
